Data: patent US10597390B2, “Indoles for use in influenza virus infection” (Janssen Sciences Ireland UC, priority 2014, dated 2020)

What was measured:
[1] = tested on: influenza virus A/Taiwan/1/86 (H1N1); assay: organism not typed; type: cell-based; details: MDCK, 72 h, CPE in MDCK cells, three days post-virus exposure, ATPlite
in vitro = details: dog, TOX MDCK CC50

Compound	melting point	IC50 [1]	CC50 at 3 days (in vitro)
Cn1nncc1C(=O)N[C@@H]1CCC[C@H](Nc2nc(-c3c[nH]c4c(F)cc(F)cc34)ncc2F)C1 [Compound 119]	285 °C	5 nM	> 50000 nM
Cn1cc(C(=O)N[C@@H]2CCC[C@H](Nc3nc(-c4c[nH]c5c(F)cc(F)cc45)ncc3F)C2)cn1 [Compound 120]	> 300 °C	3 nM	> 25000 nM
CN(C)c1ccnc(C(=O)N[C@@H]2CCC[C@H](Nc3nc(-c4c[nH]c5c(F)cc(F)cc45)ncc3F)C2)c1 [Compound 121]	282.8 °C	6 nM	15700 nM
Cn1nccc1C(=O)N[C@@H]1CCC[C@H](Nc2nc(-c3c[nH]c4c(F)cc(F)cc34)ncc2F)C1 [Compound 122]	> 300 °C	2 nM	> 25000 nM
Nc1nccc(C(=O)N[C@@H]2CCC[C@H](Nc3nc(-c4c[nH]c5c(F)cc(F)cc45)ncc3F)C2)n1 [Compound 123]	235 °C	11 nM	> 25000 nM
Nc1cc(C(=O)N[C@@H]2CCC[C@H](Nc3nc(-c4c[nH]c5c(F)cc(F)cc45)ncc3F)C2)ncn1 [Compound 124]	228 °C	7 nM	11400 nM
O=C(N[C@@H]1CCC[C@H](Nc2nc(-c3c[nH]c4c(F)cc(F)cc34)ncc2F)C1)c1cc[nH]n1 [Compound 126]	> 300 °C	2 nM	10000 nM
O=C(N[C@@H]1CCC[C@H](Nc2nc(-c3c[nH]c4c(F)cc(F)cc34)ncc2F)C1)c1ncc[nH]1 [Compound 127]	> 300 °C	1 nM	> 100000 nM
Cn1cc(Br)nc1C(=O)N[C@@H]1CCC[C@H](Nc2nc(-c3c[nH]c4c(F)cc(F)cc34)ncc2F)C1 [Compound 128]	176 °C	10 nM	5900 nM
Cn1cc(C(=O)N[C@@H]2CCC[C@H](Nc3nc(-c4c[nH]c5c(F)cc(F)cc45)ncc3F)C2)nn1 [Compound 130]	> 300 °C	32 nM	3200 nM
Nc1cc(C(=O)N[C@@H]2CCC[C@H](Nc3nc(-c4c[nH]c5c(F)cc(F)cc45)ncc3F)C2)n[nH]1 [Compound 131]	245.7 °C	4 nM	19400 nM
Cc1ocnc1C(=O)N[C@@H]1CCC[C@H](Nc2nc(-c3c[nH]c4c(F)cc(F)cc34)ncc2F)C1 [Compound 132]	266.7 °C	2 nM	11400 nM
Cn1cnc(C(=O)N[C@@H]2CCC[C@H](Nc3nc(-c4c[nH]c5c(F)cc(F)cc45)ncc3F)C2)n1 [Compound 134]	183.2 °C	14 nM	10300 nM
Cc1c[nH]c(C(=O)N[C@@H]2CCC[C@H](Nc3nc(-c4c[nH]c5c(F)cc(F)cc45)ncc3F)C2)n1 [Compound 135]	281.9 °C	2 nM	8400 nM
Cc1cn(C)nc1C(=O)N[C@@H]1CCC[C@H](Nc2nc(-c3c[nH]c4c(F)cc(F)cc34)ncc2F)C1 [Compound 136]	265.1 °C	3 nM	7600 nM
O=C(N[C@@H]1CCC[C@H](Nc2nc(-c3c[nH]c4c(F)cc(F)cc34)ncc2F)C1)c1cncnc1 [Compound 138]	> 300 °C	39 nM	> 25000 nM
O=C(N[C@@H]1CCC[C@H](Nc2nc(-c3c[nH]c4c(F)cc(F)cc34)ncc2F)C1)C1CCCN1 (stereo partly drawn) [Compound 139]	208.1 °C	2000 nM	11500 nM
Cn1ncnc1C(=O)N[C@@H]1CCC[C@H](Nc2nc(-c3c[nH]c4c(F)cc(F)cc34)ncc2F)C1 [Compound 140]	172.7 °C	7 nM	> 25000 nM
Cc1[nH]nnc1C(=O)N[C@@H]1CCC[C@H](Nc2nc(-c3c[nH]c4c(F)cc(F)cc34)ncc2F)C1 [Compound 141]	256.6 °C	2 nM	8400 nM
O=C(N[C@@H]1CCC[C@H](Nc2nc(-c3c[nH]c4c(F)cc(F)cc34)ncc2F)C1)c1c[nH]cn1 [Compound 142]	219.9 °C	2 nM	10000 nM
Cn1cnnc1C(=O)N[C@@H]1CCC[C@H](Nc2nc(-c3c[nH]c4c(F)cc(F)cc34)ncc2F)C1 [Compound 143]	169.8 °C	39 nM	9900 nM
Cc1cnc(C(=O)N[C@@H]2CCC[C@H](Nc3nc(-c4c[nH]c5c(F)cc(F)cc45)ncc3F)C2)n1C [Compound 144]	204.9 °C	4 nM	7200 nM
Nc1nc(C(=O)N[C@@H]2CCC[C@H](Nc3nc(-c4c[nH]c5c(F)cc(F)cc45)ncc3F)C2)cs1 [Compound 145]	178.1 °C	2 nM	6800 nM

Compound	melting point	IC50 [1]	CC50 at 3 days (in vitro)
Nc1n[nH]cc1C(=O)N[C@@H]1CCC[C@H](Nc2nc(-c3c[nH]c4c(F)cc(F)cc34)ncc2F)C1 [Compound 146]	169.7 °C	1 nM	10700 nM
O=C(O)c1n[nH]nc1C(=O)N[C@@H]1CCC[C@H](Nc2nc(-c3c[nH]c4c(F)cc(F)cc34)ncc2F)C1 [Compound 147]	> 300 °C	47 nM	> 25000 nM
O=C(N[C@@H]1CCC[C@H](Nc2nc(-c3c[nH]c4c(F)cc(F)cc34)ncc2F)C1)[C@H]1CCCN1 [Compound 148]	220.8 °C	600 nM	10300 nM
Cn1nc(C(=O)N[C@@H]2CCC[C@H](Nc3nc(-c4c[nH]c5c(F)cc(F)cc45)ncc3F)C2)cc1N [Compound 149]	253.4 °C	2 nM	10000 nM
Cc1sc(N)nc1C(=O)N[C@@H]1CCC[C@H](Nc2nc(-c3c[nH]c4c(F)cc(F)cc34)ncc2F)C1 [Compound 150]	248.4 °C	3 nM	4800 nM
Cn1nnnc1C(=O)N[C@@H]1CCC[C@H](Nc2nc(-c3c[nH]c4c(F)cc(F)cc34)ncc2F)C1 [Compound 152]	250.3 °C	40 nM	> 5000 nM
Cn1nnc(C(=O)N[C@@H]2CCC[C@H](Nc3nc(-c4c[nH]c5c(F)cc(F)cc45)ncc3F)C2)n1 [Compound 153]	230 °C	20 nM	> 1000 nM
O=C(N[C@@H]1CCC[C@H](Nc2nc(-c3c[nH]c4c(F)cc(F)cc34)ncc2F)C1)c1cscn1 [Compound 154]	266.8 °C	2 nM	15900 nM
O=C(N[C@@H]1CCC[C@H](Nc2nc(-c3c[nH]c4c(F)cc(F)cc34)ncc2F)C1)c1csc(C(=O)O)n1 [Compound 155]	260.8 °C	3 nM	> 22800 nM
Cn1ncc(C(=O)N[C@@H]2CCC[C@H](Nc3nc(-c4c[nH]c5c(F)cc(F)cc45)ncc3F)C2)c1N [Compound 156]	248.7 °C	0.8 nM	8500 nM
COc1ccnc(C(=O)N[C@@H]2CCC[C@H](Nc3nc(-c4c[nH]c5c(F)cc(F)cc45)c(C#N)cc3F)C2)c1 [Compound 161]	285.5 °C	3 nM	> 25000 nM
Cc1cc(F)c2[nH]cc(-c3ncc(F)c(N[C@H]4C5CCC(CC5)[C@@H]4C(=O)O)n3)c2c1 [Compound 166]	98 °C	6 nM	1000 nM
Cc1cc(F)c2[nH]cc(-c3ncc(F)c(N[C@H](CC(=O)O)C(C)(C)C)n3)c2c1 [Compound 168]	132 °C	> 25000 nM	10300 nM
Cc1cc(F)c2[nH]cc(-c3ncc(F)c(N[C@@H](CC(=O)O)C(C)(C)C)n3)c2c1 [Compound 169]	144 °C	19 nM	2300 nM
N#Cc1cc(F)c2[nH]cc(-c3ncc(F)c(N[C@H]4C5CCC(CC5)[C@@H]4C(=O)O)n3)c2c1 [Compound 171]	211.6 °C	6 nM	700 nM
N#Cc1cc(F)c2[nH]cc(-c3ncc(F)c(N[C@H]4CCC[C@@H](NC(=O)c5c[nH]nn5)C4)n3)c2c1 [Compound 172]	> 300 °C	2 nM	> 25000 nM
N#Cc1cc(F)c(N[C@@H]2CCC[C@@H](NC(=O)c3ccccn3)C2)nc1-c1c[nH]c2c(F)cc(F)cc12 [Compound 209]	257 °C	3 nM	> 25000 nM
N#Cc1cc(F)c(N[C@@H]2CCC[C@H](NC(=O)[C@@H](O)c3ccccc3)C2)nc1-c1c[nH]c2c(F)cc(F)cc12 [Compound 214]	255 °C	670 nM	2900 nM
CC(C)(C)[C@H](CC(=O)O)Nc1nc(-c2c[nH]c3c(F)cc(F)cc23)c(C#N)cc1F [Compound 218]	> 280 °C	3 nM	240 nM
O=C(O)c1cccnc1C(=O)N[C@@H]1CCC[C@H](Nc2nc(-c3c[nH]c4c(F)cc(F)cc34)ncc2F)C1 [Compound 225]	265.2 °C	9 nM	> 5000 nM
CC(C)(c1cccs1)C(CC(=O)O)Nc1nc(-c2c[nH]c3c(F)cc(F)cc23)c(C#N)cc1F (stereo not drawn) [Compound 229, 3-((5-cyano-6-(5,7-difluoro-1H-indol-3-yl)-3-fluoropyridin-2-yl)amino)-4-methyl-4-(thiophen-2-yl)pentanoic Acid]	235.7 °C	18 nM	200 nM
CC(C)(c1cccs1)[C@H](CC(=O)O)Nc1nc(-c2c[nH]c3c(F)cc(F)cc23)ncc1F [Compound 231]	271.1 °C	10 nM	2600 nM
CC(C)(c1nccs1)C(CC(=O)O)Nc1nc(-c2c[nH]c3c(F)cc(F)cc23)c(C#N)cc1F (stereo not drawn) [Compound 232]	223.6 °C	3 nM	300 nM
